Source: ChEMBL document CHEMBL1773036, “Scalarane sesterterpenes from the sponge Hyatella sp” (J Nat Prod, 2011)
≈ marks a conversion by molar mass, not a printed value.

Columns and labels:
K562 = assay: Cytotoxicity against human K562 cells by MTT assay; assay type: functional; settings: read-out: LC50 (the source's name)
Escherichia coli = assay: Antibacterial activity against Escherichia coli ATCC 25922 after 24 hrs by twofold serial dilution method; assay type: functional; settings: ATCC 25922, 24 h
Proteus vulgaris = assay: Antibacterial activity against Proteus vulgaris ATCC 3851 after 24 hrs by twofold serial dilution method; assay type: functional; settings: ATCC 3851, 24 h
Salmonella typhimurium = assay: Antibacterial activity against Salmonella typhimurium ATCC 14028 after 24 hrs by twofold serial dilution method; assay type: functional, Salmonella enterica subsp. enterica serovar Typhimurium; settings: Salmonella enterica, ATCC 14028, 24 h
Micrococcus luteus = assay: Antibacterial activity against Micrococcus luteus IFO 12708 after 24 hrs by twofold serial dilution method; assay type: functional; settings: IFO 12708, 24 h
Bacillus subtilis = assay: Antibacterial activity against Bacillus subtilis ATCC 6633 after 24 hrs by twofold serial dilution method; assay type: functional; settings: ATCC 6633, 24 h
Staphylococcus aureus = assay: Antibacterial activity against Staphylococcus aureus ATCC 6538p after 24 hrs by twofold serial dilution method; assay type: functional
[1] = Inhibition of Magnaporthe grisea Guy 11 isocitrate lyase; set-up: species or system Pyricularia oryzae

| Structure (SMILES) | CC50 (K562) | MIC (Escherichia coli) | MIC (Proteus vulgaris) | MIC (Salmonella typhimurium) | MIC (Micrococcus luteus) | MIC (Bacillus subtilis) | MIC (Staphylococcus aureus) | IC50 [1] |
| --- | --- | --- | --- | --- | --- | --- | --- | --- |
| C[C@@]1(CO)CCC[C@]2(C)[C@H]3C[C@@H](O)[C@]4(C)[C@H]5COC(=O)C5=CC[C@H]4[C@]3(C)CC[C@@H]12 | 31.1 µM | > 100 mg/L | > 100 mg/L | > 100 mg/L | > 100 mg/L | > 100 mg/L | > 100 mg/L | 133 µM |
| CO[C@@H]1C[C@H]2[C@]3(C)CC[C@H]4C(C)(C)CCC[C@]4(C)[C@H]3C[C@@H](OC(C)=O)[C@]2(C)C2=C1[C@H](O)OC2=O (mixture of isomers) | 14.8 µM | > 100 mg/L | 1.56 mg/L | 12.5 mg/L | 25 mg/L | < 0.39 mg/L | 25 mg/L |  |
| CC(=O)OC[C@]12CCCC(C)(C)[C@@H]1CC[C@]1(C)[C@@H]2C[C@@H](O)[C@]2(C)[C@@H]3C(=CC[C@@H]12)CO[C@H]3O | 19.5 µM | > 100 mg/L | 12.6 mg/L (≈ 28.2 µM) | 12.5 mg/L (≈ 28 µM) | 12.5 mg/L (≈ 28 µM) | 6.25 mg/L (≈ 14 µM) | 25 mg/L (≈ 56 µM) | 107 µM |
| CC1(C)S[C@@H]2[C@H](NC(=O)[C@H](N)c3ccccc3)C(=O)N2[C@H]1C(=O)O [AMPICILLIN] |  | 6.25 mg/L (≈ 17.9 µM) | 1.56 mg/L (≈ 4.46 µM) | 1.56 mg/L (≈ 4.46 µM) | 0.39 mg/L (≈ 1.12 µM) | 0.78 mg/L (≈ 2.23 µM) | 1.56 mg/L (≈ 4.46 µM) |  |
| CC(=O)OC[C@]12CCCC(C)(C)[C@@H]1CC[C@]1(C)[C@@H]2C[C@@H](OC(C)=O)[C@]2(C)[C@@H]3C(=CC[C@@H]12)CO[C@H]3O | 39.5 µM | > 100 mg/L | 3.12 mg/L (≈ 6.39 µM) | > 100 mg/L | > 100 mg/L | 0.78 mg/L (≈ 1.6 µM) | > 100 mg/L |  |
| CO[C@@H]1OCC2=CC[C@H]3[C@]4(C)CC[C@H]5C(C)(C)CCC[C@]5(C)[C@H]4C[C@@H](O)[C@]3(C)[C@H]21 | 24.6 µM | > 100 mg/L | > 100 mg/L | > 100 mg/L | > 100 mg/L | > 100 mg/L | > 100 mg/L |  |
| O=C(O)CC[N+](=O)[O-] |  |  |  |  |  |  |  | 27.9 µM |
| CO[C@@H]1OC(=O)C2=CC[C@H]3[C@]4(C)CC[C@H]5C(C)(C)CCC[C@]5(C)[C@H]4C[C@@H](OC(C)=O)[C@]3(C)[C@H]21 | 38.4 µM | > 100 mg/L | > 100 mg/L | > 100 mg/L | > 100 mg/L | > 100 mg/L | > 100 mg/L | 40.8 µM |
| CC(=O)O[C@@H]1C[C@@H]2[C@@]3(C)CCCC(C)(C)[C@@H]3CC[C@@]2(C)[C@@H]2CC=C3CO[C@@H](O)[C@@H]3[C@@]12C | 31.3 µM | > 100 mg/L | > 100 mg/L | > 100 mg/L | > 100 mg/L | > 100 mg/L | > 100 mg/L | 55.3 µM |
| COc1cccc2c1C(=O)c1c(O)c3c(c(O)c1C2=O)C[C@@](O)(C(=O)CO)C[C@@H]3O[C@H]1C[C@H](N)[C@H](O)[C@H](C)O1 [DOXORUBICIN] | 9.7 µM |  |  |  |  |  |  |  |
| CO[C@@H]1C[C@H]2[C@]3(C)CC[C@H]4C(C)(C)CCC[C@]4(C)[C@H]3C[C@@H](OC(C)=O)[C@]2(C)C2=C1C(=O)N(CC(=O)[O-])[C@H]2OC.[Na+] | 27 µM | 100 mg/L | 25 mg/L | 50 mg/L | 25 mg/L | 6.25 mg/L | 50 mg/L | 176 µM |
| CO[C@@H]1OCC2=CC[C@H]3[C@]4(C)CC[C@H]5C(C)(C)CCC[C@]5(C)[C@H]4C[C@@H](OC(C)=O)[C@]3(C)[C@H]21 | > 100 µM | > 100 mg/L | > 100 mg/L | > 100 mg/L | > 100 mg/L | > 100 mg/L | > 100 mg/L |  |
| CO[C@@H]1C[C@H]2[C@]3(C)CC[C@H]4C(C)(C)CCC[C@]4(C)[C@H]3C[C@@H](OC(C)=O)[C@]2(C)C2=C1C(=O)O[C@H]2O | 36.7 µM | 50 mg/L (≈ 105 µM) | 3.12 mg/L (≈ 6.58 µM) | 12.5 mg/L (≈ 26.3 µM) | 25 mg/L (≈ 52.7 µM) | 0.78 mg/L (≈ 1.64 µM) | 25 mg/L (≈ 52.7 µM) |  |
| CC(=O)O[C@@H]1C[C@@H]2[C@@]3(C)CCCC(C)(C)[C@@H]3CC[C@@]2(C)[C@@H]2CC=C3C(=O)O[C@@H](O)[C@@H]3[C@@]12C | 28.3 µM | > 100 mg/L | 6.25 mg/L (≈ 14.1 µM) | > 100 mg/L | > 100 mg/L | 6.25 mg/L (≈ 14.1 µM) | > 100 mg/L | 112 µM |
